Experimental findings from patent US8778643B2, “Methods for increasing lipid levels and producing triacylglycerols in algae” (priority 2012, dated 2014) are described below.

Structures can show the parent of a compound that is named as a salt. Where two headings read alike, the source gives them in different places.

The test system of one test is Nannochloropsis salina. The conditions noted are these: for Nile Red Fluorescence % Increase / % Inc / % change in abs / % in NR fl / % Lipid increase based on Nile red fluorescence intensity / % Increase based on Nile Red Fluorescence Intensity: N. salina; for Nile Red Fluorescence % Increase: compounds tested at 20 μM, initial screening, p<0.05; for % Inc: increase of lipid production; for % Lipid increase based on Nile red fluorescence intensity: DMSO, t=day 0; for % Increase based on Nile Red Fluorescence Intensity: DMSO delivery, added t=day 0.

The test system of the next test is Nannochloris sp. Description: Microplate assay: growth (absorbance 680 nm) and intracellular lipids (Nile Red fluorescence). It counts as cell-based. The note with it: for Absorbance (percent increase) / Nile Red percent increase: initial microplate screen, relative to control.
Test [1] relates to Phaeodactylum tricornutum. The description is as above. It counts as cell-based. The conditions noted are these: for % Inc: increase of lipid production; for % Inc / Nile Red Fluorescence % Increase / % change in abs / % in NR fl: P. tricornutum; for Nile Red Fluorescence % Increase: compounds tested at 200 nM, initial screening, p<0.05.
[2] abbreviates: Nannochloris sp., compounds tested at 200 nM, initial screening, p<0.05.
Where [3] appears, read: Nannochloris sp., compounds tested at 20 μM, initial screening, p<0.05.
Where [4] appears, read: 200 nM, initial microplate screen, relative to control.

With `CC(=O)N1CCN(c2ccc(OC[C@H]3CO[C@](Cn4ccnc4)(c4ccc(Cl)cc4Cl)O3)cc2)CC1` (relative stereo) [Ketoconazole, cis-1-Acetyl-4-[4-[[2-(2,4-dichlorophenyl)-2-(1H-imidazol-1-ylmethyl)-1,3-dioxolan-4-yl]methoxy]phenyl]piperazine], the “Nile Red Fluorescence % Increase” value in the test with Nannochloropsis salina is listed as 32.0%; in the test on Nannochloris sp. (setting [2]), 258.9%.
For `Oc1cc(O)c2c(c1)O[C@H](c1ccc(O)c(O)c1)[C@@H](O)C2` [(+)-Catechin, (2R,3S)-2-(3,4-dihydroxyphenyl)-3,4-dihydro-2H-chromene-3,5,7-triol], the “% Inc” value with Nannochloropsis salina (best conc. 39 nM) worked out at 84.21%.
With `O=c1cc(-c2ccc(O)cc2)oc2cc(O)cc(O)c12` [Apigenin, 5,7-Dihydroxy-2-(4-hydroxyphenyl)-4H-1-benzopyran-4-one], the “Nile Red Fluorescence % Increase” value in the test with Nannochloropsis salina is 34.3%. The “% Inc” value in the test on Nannochloropsis salina (best conc. 39 nM) is 90.17%. Moreover, in the test with Nannochloris sp. (20 μM), the “Absorbance (percent increase)” value was −7.3% and the “Nile Red percent increase” value was determined as 59.9%. The “Nile Red Fluorescence % Increase” value with Nannochloris sp. (setting [3]) was found to be 136.7%.
`O=C1O[C@H]([C@@H](O)CO)C(O)=C1O` [Ascorbic acid, (2R)-2-[(1S)-1,2-dihydroxyethyl]-3,4-dihydroxy-2H-furan-5-one]: the “% Inc” value in test [1] (best conc. 10 nM) stood at 57.28%.
Take `CCNc1nc(Cl)nc(NC(C)C)n1` [Atrazane, 1-Chloro-3-ethylamino-5-isopropylamino-2,4,6-triazine]: in the test on Nannochloris sp. (200 nM), the “Absorbance (percent increase)” value is reported as −1.7% and the “Nile Red percent increase” value is recorded as 86.2%.
For `c1ccc(CNc2ncnc3[nH]cnc23)cc1` [Benzylamino Purine], in test [1] (best conc. 40 μM), the “% Inc” value came out at 120.94%.
Take `c1ccc(CNc2ncnc3nc[nH]c23)cc1` [Benzylaminopurine, N-(phenylmethyl)-7H-purin-6-amine]: in test [1] (setting [4]), the “Absorbance (percent increase)” value was −14.6% and the “Nile Red percent increase” value was determined as 105.9%. Moreover, the “Nile Red Fluorescence % Increase” value in test [1] came to 105.9%.
On to `O=C1C(Cl)=C(NCCN2CCOCC2)C(=O)c2ncccc21` [CDC25], for which the “Nile Red Fluorescence % Increase” value in the test on Nannochloris sp. (setting [2]) was found to be 28.2%; in the test on Nannochloris sp. (setting [3]), 130.9%.
Consider `CCNc1cc(N[C@H]2CC[C@H](O)CC2)nc(Nc2ccc3c(ccn3Cc3ccccc3)c2)n1` [CDK4 I4, trans-4-((6-(ethylamino)-2-((1-(phenylmethyl)-1H-indol-5-yl)amino)-4-pyrimidinyl)amino)-cyclohexanol], for which, in the test on Nannochloropsis salina (40 μM, dose-response microplate screen), the “Nile Red percent increase” value is 144%. In addition, the “% Inc” value in the test with Nannochloropsis salina (best conc. 40 μM) came out at 144.22%.
With `Cn1c(=O)c2c(ncn2C)n(C)c1=O` [Caffeine, 1,3,7-trimethyl-1H-purine-2,6(3H,7H)-dione], in the test with Nannochloris sp. (200 nM), the “Absorbance (percent increase)” value is −7.5% and the “Nile Red percent increase” value amounted to 60.4%.
As for `C/C=C/C/C=C/CCC(=O)[C@H]1O[C@H]1C(N)=O` [Cerulenin, (2R,3S)-3-[(4E,7E)-Nona-4,7-dienoyl]oxirane-2-carboxamide], in the test with Nannochloris sp. (200 nM), the “Absorbance (percent increase)” value is given as −13.2% and the “Nile Red percent increase” value was 94.6%. Moreover, in the test on Nannochloris sp. (setting [2]), the “Nile Red Fluorescence % Increase” value worked out at 107.9%.
On to `O=C(O)CC(O)(CC(=O)O)C(=O)O` [Citric acid, 2-hydroxypropane-1,2,3-tricarboxylic acid], for which, in the test on Nannochloris sp. (200 nM), the “Absorbance (percent increase)” value is reported as −6.5% and the “Nile Red percent increase” value is recorded as 55.41%.
With `NC(=O)c1cccc(-c2cccc(OC(=O)NC3CCCCC3)c2)c1` [FAAH Inhibitor II, 3′-Carbamoyl-biphenyl-3-yl-cyclohexylcarbamate], the “% Increase based on Nile Red Fluorescence Intensity” value (“% Increase based” below) is listed as 167% in the test on Nannochloris sp.; 145% with Nannochloris sp. (Nannochloris sp., 0.2 nM, dissolved in water, added t=day 0); 182% with Nannochloris sp. (Nannochloris sp., 0.6 nM, dissolved in water, added t=day 0); 154% with Nannochloris sp. (Nannochloris sp., 49 nM, dissolved in water, added t=day 0); 144% in the test on Nannochloris sp. (Nannochloris sp., 1.3 μM, dissolved in water, added t=day 0). For the same molecule, in the test on Nannochloris sp. (Nannochloris sp., 0.6 nM, (water), t=day 0), the “% Lipid increase based on Nile red fluorescence intensity” value (from here on “% Lipid increase based”) is 182%.
In the case of `C=C1C[C@]23C[C@@]1(O)CC[C@H]2[C@@]12C=C[C@H](O)[C@@](C)(C(=O)O1)[C@H]2[C@@H]3C(=O)O` [Giberellic acid, (3S,3aS,4S,4aS,6S,8aR,8bR,11S)-6,11-Dihydroxy-3-methyl-12-methylene-2-oxo-4a,6-ethano-3,8bprop-1-enoperhydroindeno[1,2-b]furan-4-ca], in the test on Nannochloris sp. (200 nM), the “Absorbance (percent increase)” value was −1.1% and the “Nile Red percent increase” value stood at 70.4%.
Turning to `O=C(Oc1ccc([N+](=O)[O-])cc1)N1CCC(C(O)(c2ccc3c(c2)OCO3)c2ccc3c(c2)OCO3)CC1` [JZL 184 hydrate, 4-nitrophenyl-4-[bis(1,3-benzodioxol-5-yl)(hydroxy)methyl]piperidine-1-carboxylate], in the test with Nannochloropsis salina (3.3 μM), the “% change in abs” value was −12.15% and the “% in NR fl” value is reported as 95.70%. In the test with Nannochloropsis salina (10 μM), the “% change in abs” value is recorded as 13.75% and the “% in NR fl” value was 86.72%. Also, in the test on Nannochloropsis salina (40 μM), the “% change in abs” value worked out at 0.61%, the “% in NR fl” value was found to be 118.99%, the “% Lipid increase based” value was determined as 119% and the “% Increase based” value was 119%.
For the molecule `CC/C=C\C[C@H]1C(=O)CC[C@@H]1CC(=O)O` [Jasmonic acid, (1R,2R)-3-Oxo-2-(2Z)-2-pentenyl-cyclopentaneacetic acid], in the test with Nannochloris sp. (200 nM), the “Absorbance (percent increase)” value was −7.6% and the “Nile Red percent increase” value is reported as 87.5%. Moreover, the “Nile Red Fluorescence % Increase” value in the test on Nannochloris sp. (setting [2]) amounted to 80.5%.
For `O=C1Cc2c([nH]c3ccc(Br)cc23)-c2ccccc2N1` [Kenpaulllone], the “Nile Red Fluorescence % Increase” value in the test with Nannochloris sp. (setting [2]) was 84.2%.
For `c1coc(CNc2ncnc3nc[nH]c23)c1` [Kinetin, N^6-furfuryladenine], in the test on Nannochloris sp. (200 nM), the “Absorbance (percent increase)” value is listed as −9.0% and the “Nile Red percent increase” value came out at 72.4%. Moreover, the “Nile Red Fluorescence % Increase” value in test [1] is recorded as 25.2%. The “% Inc” value in test [1] (best conc. 39 nM) stood at 76.29%.
On to `COc1ccc2[nH]cc(CCNC(C)=O)c2c1` [Melatonin, N-Acetyl-5-methoxytryptamine], for which, in test [1] (best conc. 40 μM), the “% Inc” value is reported as 47.80%.
For the molecule `CC/C=C\CC1C(=O)CCC1CC(=O)OC` (centres unmarked) [Methyl jasmonate], in the test on Nannochloropsis salina (13 nM), the “% Lipid increase based” value is listed as 85% and the “% Increase based” value stood at 85%.
Consider `CCC(C)Nc1ccc(NC(C)CC)cc1` (centres unmarked) [N,N′-di-sec-butyl-p-phenylenediamine, 1-N,4-N-di(butan-2-yl)benzene-1,4-diamine], for which the “% Inc” value in test [1] (best conc. 156 nM) is on record as 39.51%.
As for `COc1ccc2cc([C@H](C)C(=O)O)ccc2c1` [Naproxen, (S)-(+)-2-(6-Methoxy-2-naphthyl)propionic acid], the “% Inc” value in the test on Nannochloropsis salina (best conc. 156 nM) worked out at 67.44%.
Take `CCCCCCCCCCCCCCCC(=O)C(F)(F)F` [PTFK, 1,1,1-Trifluoro-2-heptadecanone]: the “% change in abs” value was determined as 3.22% in test [1] (13 nM) and 5.05% in test [1] (41.2 nM). Further, the “% in NR fl” value in test [1] (13 nM) was 70.44%; in test [1] (41.2 nM) it was 67.59%.
As to `O=c1c(O)c(-c2ccc(O)c(O)c2)oc2cc(O)cc(O)c12` [Quercetin, 2-(3,4-dihydroxyphenyl)-3,5,7-trihydroxy-4H-chromen-4-one], in the test with Nannochloris sp. (200 nM), the “Absorbance (percent increase)” value is −1.6% and the “Nile Red percent increase” value is 63.5%.
For `CC[C@H](CO)Nc1nc(NCc2ccccc2)c2ncn(C(C)C)c2n1` [Roscovitine], in the test with Nannochloris sp., the “Nile Red Fluorescence % Increase” value came to 30.8%.
Consider `Cc1ncc(C[n+]2csc(CCO)c2C)c(N)n1` [Thiamine, Aneurine hydrochloride, Vitamin B1 hydrochloride], for which, in the test on Nannochloris sp. (200 nM), the “Absorbance (percent increase)” value was −12.1% and the “Nile Red percent increase” value was found to be 122.6%.
In the case of Indole acetic acid, the “Nile Red Fluorescence % Increase” value in the test with Nannochloris sp. was determined as 95.4%.
